This is an account of results in patent US20260070946A1, “TYR PEPTIDE COMPOSITIONS AND METHODS FOR USE” (UNIVERSITY OF MIAMI, priority 2022, published 2026).

Data set [1] relates to HT1080 cells. In words: Rapid cell proliferation assay, HT1080, cyclic versus non-cyclic TPA. In kind it is cell-based. The following applies: 40 μg/ml. Here is the method: Rapid cell proliferation assay was carried out using a Rapid Cell Proliferation Kit, EMD Biosciences (QIA127) (Galoian K, Tumor Biology 32 (4): 745-51, 2011). Cells were seeded at 5×10^4 cells/100 μl culture in the multi-well plate and incubated overnight at 37° C. in 5% CO2 incubator. The actual assay was performed the next day. The rapid cell proliferation assay is based on the activity of mitochondrial enzymes active in viable cells. PRP-1 was added to corresponding wells just after seeding, before overnight incubation. The colorimetric 96-well assay measures colorful product like formazan because of WST-1 tetrazolium salt cleavage by the mitochondrial dehydrogenases. The formazan formation is then quantified by measuring the change in absorbance at 450 nm in a microplate reader. The activity of mitochondrial dehydrogenases is proportional to cell number. No washing, harvesting, or solubilization steps are required. In this series of experiments, PRP-1 was added to corresponding wells immediately after seeding and cell attachment followed by overnight incubation according to the manufacturer's instructions.
The cyclic version was created to protect the peptide from being degraded by proteases in vivo. The cyclic peptide was tested for its potency in a rapid cell proliferation assay using HT1080 cells as described above using 40 μg/ml TPA or cyclic TPA in the assay.

The subject of data set [2] is HT1080 fibrosarcoma cells. In words: Survival experiment with HT1080 cells derived from doxorubicin relapsed mice. It is filed as in vivo. How it is done: Additional survival experiments were undertaken. HT1080 fibrosarcoma cells were used in this experiment that derived from doxorubicin relapsed mice. The cells from tumor were excised as single cell suspension for quick isolation from tissue for subsequent luminescent labeling, then they were cultured in vitro and re-transplanted.

In data set [3] the test system is MDA 231 (ER-) breast cell carcinoma cells. To be noted: cited from earlier work.
A further data set concerns T47-D (ER+) cells. The following applies: cited from earlier work.
In data set [4] the test system is HT1080 cells. In kind it is cell-based, human. An excerpt:
Analysis of anti-proliferative activity in HT1080 cells was examined.

Data set [5] is described as follows: Acute and cumulative toxicity in mice.
The next data set deals with fibrosarcoma spheroids. In words: Neutral red cytotoxicity assay. In kind it is cell-based.
Data set [6] concerns osteosarcoma cell line MNNG. The experiment in a line: Rapid cell proliferation assay, MNNG. It is filed as cell-based. To be noted: only the highest dose of 40 μg/ml, 48 hours. Here is the method: (§1) The effects of TPA on three osteosarcoma cell lines OSA, KHOS, MNNG was analyzed (FIG. 11). Rapid cell proliferation was measured by a Rapid Cell Proliferation Kit, EMD Biosciences (QIA127). Cells were seeded at 5×10^4 cells/100 μl culture in a multi-well plate and incubated overnight at 37° C. in 5% CO2 incubator. The actual assay was performed the next day. The rapid cell proliferation assay is based on the activity of mitochondrial enzymes active in viable cells. TPA was added to corresponding wells just after seeding, and before overnight incubation. The 96-well assay measures colorimetric product like formazan because of WST-1 tetrazolium salt cleavage by the mitochondrial dehydrogenases. TPA exerted its effect in all cell lines 48 hours after the incubation. […] (FIG. 11)

Another data set relates to Nanog. The experiment in a line: Nanog mRNA expression in 3D HT1080 lysates. It is filed as cell-based. The following applies: 3D lysates, TPA 20 μg/mL. An excerpt: (§2) Experiments herein (FIG. 13) indicated there was statistically significant inhibition in 3DHT1080 cell line for EZH2, and its targets, embryonic transcription factor Nanog (Villasante et al., Cell Cycle. 10 (9): 1488-498, 2011), and cancer stem cell marker […], ALDH1A1 (Li et al., Cancer Prev Res (Phila). 25 (3): 484-491 2012). Aldehyde dehydrogenase (ALDH) is an established marker of CSCs in several neoplasms. Cells expressing high levels of ALDH have been isolated in a number of human sarcoma cell lines, including the human chondrosarcoma SW 1353 cell line (Lohberger et al., PLOS One 7).

The subject of a further data set is ALDHA. In words: ALDHA mRNA expression in 3D HT1080 lysates. In kind it is cell-based. To be noted: 3D lysates, TPA 20 μg/mL.
Description: as §2

For data set [7] the following is noted: mouse, in vivo.
The test system of a further data set is HT1080 fibrosarcoma. In words: HT1080 fibrosarcoma nude mice model (IVIS, tumor volume, tumor weight). It is filed as in vivo. How it is done:
A nude mice model was used in which animals receive orthotopic inoculation of highly metastatic JJ012 chondrosarcoma or HT1080 fibrosarcoma tumor cell lines or primary cell lines labeled with extremely red bright fluorescent protein PTDT-N1.
Disease progression is evaluated through clinical signs and animal-relevant responses, tumor size analysis, real-time fluorescence and bioluminescence imaging (IVIS) of both in vivo and ex vivo disease-specific tumor microenvironments and lung metastases.
Monitoring of the solid tumors is as follows (when visible, tumors will be measured by noninvasive imaging or caliper at least weekly). Experimental endpoints depend on the site of transplantation. Mice are euthanized before they reach a tumor volume of 2 cm^3 for a single or multiple tumors. The overriding consideration for humane endpoints of these oncological experiments will be the overall health of the animal. Animals are weighed at least once a week for fast growing tumors (reaching endpoint before 3 months after transplantation) and at least once a month for slow growing tumors. Any tumor-bearing animal are euthanized immediately if the tumor impairs ambulation or eating. […] Animals bearing tumors in such locations are euthanized before the tumors reach the above-stated dimensions.
Tumor-bearing mice are photographed either at the experimental endpoint or using noninvasive imaging technologies to monitor tumor progression. Also contemplated is imaging in vivo for evidence of tumor progression (BLI, IVIS), and observance of clinical signs of metastases (listlessness, weight loss, or hunched posture). Tumors and lungs are harvested to confirm presence of lung metastases and further analyzed: tumors are weighed, photographed, and sectioned into samples designated half for 10% formalin fixation analysis or half for snap-freeze in liquid nitrogen for future analysis.

In data set [8] the test system is osteosarcoma cell line KHOS. The experiment in a line: Rapid cell proliferation assay, KHOS. In kind it is cell-based. To be noted: 48 h. How it is done:
as §1

Data set [9] relates to 3D fibrosarcoma spheroids. In words: Self-renewal assay with 3D fibrosarcoma. It is filed as cell-based.
Data set [10] deals with cardiomyocyte cell line AC16. The experiment in a line: Cardiotoxicity in cardiomyocyte cell line AC16. In kind it is cell-based. To be noted: 24 hours; TPA 40 μg/mL, Doxo 2 mM. Here is the method: Cardiotoxicity results of TPA, Doxo and TPA+Doxo combo were analyzed in cardiomyocyte cell line AC16. Cells were treated 24 hours with C (control, DMSO 0.5%), TPA (40 μg/mL), Doxo (Doxorubicin, 2 mM), and TPA (40 μg/mL)+Doxo (2 mM). (FIG. 10). […] Thus, overall survival increases observed in vivo should be attributed to TPA's ability to target and eliminate cancer stem cells.

The test system of another data set is EZH2. In words: EZH2 mRNA expression in 3D HT1080 lysates. In kind it is cell-based. The following applies: 3D lysates, TPA 20 μg/mL.
Description: as §2

Another data set has as its system Nanog protein. In words: Nanog protein expression in 3D HT1080 cells, western blot. The following applies: 40 μg/ml. It is filed as cell-based.
A further data set deals with HOXC13 proteins. The experiment in a line: Inhibition of HOXC13 proteins.
The subject of data set [11] is chondrosarcoma and fibrosarcoma.

Like-named read-outs stand apart in the source and are kept apart here. Residues, ends and D or L forms follow the SMILES beside them. No end group written: not given here.

For `CC(C)C[C@@H]1NC(=O)[C@H](CCC(=O)O)NC(=O)[C@@H]2CCCN2C(=O)[C@H](CC(=O)O)NC(=O)[C@H](C)NC(=O)[C@@H]2CCCN2C(=O)CNC(=O)[C@H](CCCCN)NC(=O)[C@@H]2CCCN2C(=O)[C@H](CCC(=O)O)NC(=O)[C@@H]2CCCN2C(=O)[C@H]([C@@H](C)O)NC(=O)[C@H](CCC(=O)O)NC(=O)[C@H](CO)NC(=O)[C@H](Cc2ccc(OP(=O)(O)O)cc2)NC1=O` [cyclic TPA, Cyclo(Ser-Glu-Thr-Pro-Glu-Pro-Lys-Gly-Pro-Ala-Asp-Pro-Glu-Leu-Tyr (PO3H2))] (HELM PEPTIDE1{A.D.P.E.L.[O=C([C@H](Cc1ccc(OP(=O)(O)O)cc1)N[*:1])[*:2]].S.E.T.P.E.P.K.G.P}$PEPTIDE1,PEPTIDE1,1:R1-15:R2$$$V2.0), in the data set with HT1080 cells [1], the “improvement over non-cyclic TPA” value is given as ~1.5 fold and the “inhibition of cell growth compared to control” value is reported as “over 50%”.

On to `COc1cccc2c1C(=O)c1c(O)c3c(c(O)c1C2=O)C[C@@](O)(C(=O)CO)C[C@@H]3O[C@H]1C[C@H](N)[C@H](O)[C@H](C)O1` [doxorubicin], for which the median survival in data set [2] (10 mice per group, control (PBS) 21 days) turned out to be 28 days. The “overall Median Survival advantage” value in data set [2] (mice re-transplanted with cells from doxorubicin relapsed tumors) is listed as 33%.

Turning to AGAPEPAEPAQPGVY [PRP-1], the “inhibition of cell growth” value was 71% in data set [3] (0.5 μg/ml PRP-1), 63% in [3] (1 μg/ml PRP-1) and 44% in data set [3] (10 μg/ml). The “inhibitory effect on cell growth” value with T47-D (ER+) cells is “no inhibitory effect”.

As to “SETPEPKGPADPELY [TPA 1, SETPEPKGPADPELY]”, the “IC50, anti-proliferative activity” value in the data set on HT1080 cells [4] amounted to 21 µg/mL. Further, the “concentration of maximum effect” value in the data set on HT1080 cells [4] (HT1080 human fibrosarcoma, dose response) came to 40 µg/mL. Also, the “effect on cancer stem cell spheroids” value in the data set on HT1080 cells [4] (visual, maximum effect with 40 μg/ml) is “destruction of cancer stem cell spheroids in dose response manner”.

Take SETPEPKGPADPELY [TPA, SETPEPKGPADPELY]: the cumulative toxicity entry in [5] (following 14 days of TPA treatment) is recorded as “no cumulative toxicity”. Also, in data set [5] (up to 100 mg/kg), the “acute toxicity (change in weight or behavior)” value is reported as “No acute toxicity”. In addition, the “cytotoxic effect relative to doxorubicin (DO)” value with fibrosarcoma spheroids (40 μg/ml) is “almost that in cytotoxic doxorubicin”. Further, in the data set with fibrosarcoma spheroids (increased concentration of TPA peptide), the “viability of fibrosarcoma spheroids” value is “dose response decrease in viability”. The values for the growth inhibition result in [6] and in data set [8] were “inhibited growth” and 40%, respectively. For the same molecule, in the data set on Nanog, the “Nanog mRNA fold decrease versus control” value came to 7.69 fold. In addition, in the data set on Nanog (normalized to GAPDH mRNA), the “reduced expression of Nanog” value came to 87%. The “ALDHA mRNA fold decrease versus control” value with ALDHA worked out at 3.22 fold. Moreover, the “reduced expression of ALDHA” value in the data set with ALDHA (normalized to GAPDH mRNA) is 69%. Besides, the “blood count and chemistry” value in data set [7] is “no change in blood count and chemistry”. Moreover, in the data set with HT1080 fibrosarcoma (by day 18), the “tumor volume versus Control” value was “trend toward decreased tumor volume”. In addition, the “tumor weights at necropsy versus Control” value in the data set on HT1080 fibrosarcoma (day after Day 14) is on record as “no difference in tumor weights”. Further, the “IVIS tumor growth compared to Control” value in the data set with HT1080 fibrosarcoma (through Day 14, IVIS % Growth p<0.001) is recorded as “decreased growth”. For the same molecule, the “effect on spheroids in comparison to not treated control” value in data set [9] (20 μg/ml) is “destruction and shrinkage of the spheroid”. For the same molecule, the “viability of the shrunken spheroids by viability assay” value in data set [9] (20 μg/ml) is given as “non viable”. Besides, the spheroid formation entry in data set [9] (40 μg/ml) is given as “completely prevented spheroid formation”. In addition, in data set [10], the cytotoxicity in cardiomyocytes result is recorded as “did not show any toxicity”. In addition, the “EZH2 mRNA fold decrease versus control” value with EZH2 is on record as 5 fold. Besides, the “reduced expression of EZH2” value with EZH2 (normalized to GAPDH mRNA) was found to be 80%. In addition, the “inhibition of Nanog protein in comparison with control” value in the data set with Nanog protein was 47%. For the same molecule, the “inhibition of HOXC13 proteins” value with HOXC13 proteins was “inhibits in a statistically significant manner”. Besides, the “inhibition of chondrosarcoma and fibrosarcoma growth” value in data set [11] is 80-90%.
